This passage reports IC50 results from PubChem BioAssay AID1512 (Sanford-Burnham Center for Chemical Genomics, 2009).

The test has as its target placental alkaline phosphatase (ALPP), human. Briefly: PLAP enzyme inhibitors, confirmation, biochemical, luminescence (AID 1512). Conditions: purified PLAP enzyme, luminescent substrate read-out.

Regarding `Cc1cn(CC(=O)c2ccc(O)c(O)c2)cn1`, the half-maximal inhibitory concentration (IC50) is 5.81 µM. The value for `CC(C)NCC(=O)c1ccc(O)c(O)c1` was 39.3 µM; that for `O=C(CNc1nc2ccccc2[nH]1)c1ccc(O)c(O)c1` was 9.11 µM. The value for `Cc1cc(C)nc(NCc2ccc(O)c(O)c2)n1` was 51.2 µM; that for `O=C(Cn1ccnc1-c1ccccc1)c1ccc(O)c(O)c1` was 17.2 µM; that for `Cc1cc2ncn(CC(=O)c3ccc(O)c(O)c3)c2cc1C` was 5.83 µM.

As to `Cc1nc(Br)cn1CC(=O)c1ccc(O)c(O)c1`, the IC50 is 4.96 µM.
